# From patent publication US11377425B1, “Small molecule modulators of IL-17” (LEO Pharma A/S, priority 2018, dated 2022)
# Target: T1, human IL-17AA (Homo sapiens, UniProt Q16552)
# T1 construct: host or cells: HEK (human embryonic kidney) cells
# T1 sequence (Q16552 24-155): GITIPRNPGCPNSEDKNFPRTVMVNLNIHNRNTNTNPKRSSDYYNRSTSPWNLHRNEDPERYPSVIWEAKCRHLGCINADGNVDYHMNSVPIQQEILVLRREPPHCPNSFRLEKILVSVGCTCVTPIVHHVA
# Assay: IL-8 release assay in human epithelial keratinocytes adult (HEKa)
# Format: cell-based
# Details: HEKa cells, 3 ng/mL HEK-human IL-17AA + 10 ng/mL human TNFalpha; read-out: Rel EC50 IL-8 release assay
# How it was run: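 IL-8 release, quantified by HTRF and normalized to controls, reports IL-17 signaling in HEKa cells treated with compound plus final 3 ng/mL IL-17AA (HEK-derived) and 10 ng/mL TNF-alpha for 68-72 h; TNF-alpha-only wells set 100% inhibition. Four-parameter logistic fits (r^2>0.9) give relative IC50 and Emax; PrestoBlue flags cytotoxicity.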
row,EC50,Structure (SMILES)
1,< 100 nM,"Cc1noc(C)c1-c1ccc(NC(=O)[C@@H](NC(=O)c2ccnn2C(C)C)C(C2CC2)C2CC2)cc1 [Example 360, N-[(1S)-1-(dicyclopropylmethyl)-2-[4-(3,5-dimethylisoxazol-4-yl)anilino]-2-oxo-ethyl]-2-isopropyl-pyrazole-3-carboxamide]"
2,100 to 1000 nM,"Cc1ncoc1-c1ccc(NC(=O)[C@@H](NC(=O)c2ccnn2C(C)C)C(C2CC2)C2CC2)cc1 [Example 361, N-[(1S)-1-(dicyclopropylmethyl)-2-[4-(4-methyloxazol-5-yl)anilino]-2-oxo-ethyl]-2-isopropyl-pyrazole-3-carboxamide]"
3,100 to 1000 nM,"CCn1nccc1C(=O)N[C@H](C(=O)Nc1ccc(-c2c(C)ncn2C)c(O)c1)C(C1CC1)C1CC1 [Example 362, N-[(1S)-1-(dicyclopropylmethyl)-2-[4-(3,5-dimethylimidazol-4-yl)-3-hydroxy-anilino]-2-oxo-ethyl]-2-ethyl-pyrazole-3-carboxamide]"
4,< 100 nM,"Cc1ncn(C)c1-c1ccc(NC(=O)[C@@H](NC(=O)c2ccnn2C(C)C)C(C2CC2)C2CC2)cc1O [Example 363, N-[(1S)-1-(dicyclopropylmethyl)-2-[4-(3,5-dimethylimidazol-4-yl)-3-hydroxy-anilino]-2-oxo-ethyl]-2-isopropyl-pyrazole-3-carboxamide]"
5,< 100 nM,"CCn1nccc1C(=O)N[C@H](C(=O)Nc1ccc(-c2c(C)cnn2C)c(O)c1)C(C1CC1)C1CC1 [Example 364, N-[(1S)-1-(dicyclopropylmethyl)-2-[4-(2,4-dimethylpyrazol-3-yl)-3-hydroxy-anilino]-2-oxo-ethyl]-2-ethyl-pyrazole-3-carboxamide]"
6,< 100 nM,"Cc1cnn(C)c1-c1ccc(NC(=O)[C@@H](NC(=O)c2ccnn2C(C)C)C(C2CC2)C2CC2)cc1O [Example 365, N-[(1S)-1-(dicyclopropylmethyl)-2-[4-(2,4-dimethylpyrazol-3-yl)-3-hydroxy-anilino]-2-oxo-ethyl]-2-isopropyl-pyrazole-3-carboxamide]"
7,100 to 1000 nM,"Cc1cnn(C)c1-c1ccc(NC(=O)[C@@H](NC(=O)c2ccnn2C(C)CO)C(C2CC2)C2CC2)cc1O (stereo partly drawn) [Example 366, N-[(1S)-1-(dicyclopropylmethyl)-2-[4-(2,4-dimethylpyrazol-3-yl)-3-hydroxy-anilino]-2-oxo-ethyl]-2-(2-hydroxy-1-methyl-ethyl)pyrazole-3-carboxamide]"
8,< 100 nM,"Cc1cnn(C)c1-c1ccc(NC(=O)[C@@H](NC(=O)c2ccnn2C(C)C)C(C2CC2)C2CC2)cc1 [Example 367, N-[(1S)-1-(dicyclopropylmethyl)-2-[4-(2,4-dimethylpyrazol-3-yl)anilino]-2-oxo-ethyl]-2-isopropyl-pyrazole-3-carboxamide]"
9,100 to 1000 nM,"CC(C)n1nccc1C(=O)N[C@H](C(=O)Nc1ccc(-c2c(C3(O)CC3)cnn2C)cc1)C(C1CC1)C1CC1 [Example 368, N-[(1S)-1-(dicyclopropylmethyl)-2-[4-[4-(1-hydroxycyclopropyl)-2-methyl-pyrazol-3-yl]anilino]-2-oxo-ethyl]-2-isopropyl-pyrazole-3-carboxamide]"
10,100 to 1000 nM,"CCn1nccc1C(=O)N[C@H](C(=O)Nc1ccc(-n2cnc(C)c2C)cc1)C(C1CC1)C1CC1 [Example 369, N-[(1S)-1-(dicyclopropylmethyl)-2-[4-(4,5-dimethylimidazol-1-yl)anilino]-2-oxo-ethyl]-2-ethyl-pyrazole-3-carboxamide]"
11,> 1000 nM,"CCn1nccc1C(=O)N[C@H](C(=O)Nc1ccc(-n2c(C)c[nH]c2=O)cc1)C(C1CC1)C1CC1 [Example 370, N-[(1S)-1-(dicyclopropylmethyl)-2-[4-(4-methyl-2-oxo-1H-imidazol-3-yl)anilino]-2-oxo-ethyl]-2-ethyl-pyrazole-3-carboxamide]"
12,100 to 1000 nM,"CC(C)n1nccc1C(=O)N[C@H](C(=O)Nc1ccc(-c2c(C(F)(F)F)ncn2C)cc1)C1CCCCC1 [Example 371A, N-[(1S)-1-cyclohexyl-2-[4-[3-methyl-5-(trifluoromethyl)imidazol-4-yl]anilino]-2-oxo-ethyl]-2-isopropyl-pyrazole-3-carboxamide]"
13,> 1000 nM,"CC(C)n1nccc1C(=O)N[C@H](C(=O)Nc1ccc(-c2ncn(C)c2C(F)(F)F)cc1)C1CCCCC1 [Example 371B, N-[(1S)-1-cyclohexyl-2-[4-[1-methyl-5-(trifluoromethyl)imidazol-4-yl]anilino]-2-oxo-ethyl]-2-isopropyl-pyrazole-3-carboxamide]"
14,> 1000 nM,"Cn1cncc1-c1ccc(NC(=O)[C@@H](NC(=O)c2ccnn2C)[C@@H]2CCCc3ccccc32)cc1 [Example 375, 2-Methyl-N-[(1S)-2-[4-(3-methylimidazol-4-yl)anilino]-2-oxo-1-[(1R)-tetralin-1-yl]ethyl]pyrazole-3-carboxamide]"
15,> 1000 nM,"Cn1cncc1-c1ccc(NC(=O)[C@@H](NC(=O)c2ccnn2C)[C@@H]2CCc3ccccc32)cc1 [Example 376, N-[(1S)-1-[(1R)-indan-1-yl]-2-[4-(3-methylimidazol-4-yl)anilino]-2-oxo-ethyl]-2-methyl-pyrazole-3-carboxamide]"
16,100 to 1000 nM,"Cn1cncc1-c1ccc(NC(=O)[C@@H](NC(=O)c2ccnn2C)[C@H]2CCc3ccccc32)cc1 [Example 377, N-[(1S)-1-[(1S)-indan-1-yl]-2-[4-(3-methylimidazol-4-yl)anilino]-2-oxo-ethyl]-2-methyl-pyrazole-3-carboxamide]"
17,> 1000 nM,"Cc1nccn1-c1ccc(NC(=O)[C@@H](NC(=O)c2ccnn2C)[C@@H]2CCCc3ccccc32)cc1 [Example 378, 2-methyl-N-[(1S)-2-[4-(2-methylimidazol-1-yl)anilino]-2-oxo-1-[(1R)-tetralin-1-yl]ethyl]pyrazole-3-carboxamide]"
18,> 1000 nM,"Cc1nc[nH]c1-c1ccc(NC(=O)[C@@H](NC(=O)c2ccnn2C(C)C)C(C2CC2)C2CC2)cc1 [Example 379, N-[(1S)-1-(dicyclopropylmethyl)-2-[4-(4-methyl-1H-imidazol-5-yl)anilino]-2-oxo-ethyl]-2-isopropyl-pyrazole-3-carboxamide]"
19,100 to 1000 nM,"CC(C)c1nc[nH]c1-c1ccc(NC(=O)[C@@H](NC(=O)c2ccnn2C(C)C)C(C2CC2)C2CC2)cc1 [Example 380, N-[(1S)-1-(dicyclopropylmethyl)-2-[4-(4-isopropyl-1H-imidazol-5-yl)anilino]-2-oxo-ethyl]-2-isopropyl-pyrazole-3-carboxamide]"
20,100 to 1000 nM,"CC(C)n1nccc1C(=O)N[C@H](C(=O)Nc1ccc(-c2[nH]cnc2C2CC2)cc1)C(C1CC1)C1CC1 [Example 381, N-[(1S)-2,2-dicyclopropyl-1-[[4-(4-cyclopropyl-1H-imidazol-5-yl)phenyl]carbamoyl]ethyl]-2-isopropyl-pyrazole-3-carboxamide]"
21,100 to 1000 nM,"Cc1cn[nH]c1-c1ccc(NC(=O)[C@@H](NC(=O)c2ccnn2C(C)C)C(C2CC2)C2CC2)cc1 [Example 382, N-[(1S)-1-(dicyclopropylmethyl)-2-[4-(4-methyl-1H-pyrazol-5-yl)anilino]-2-oxo-ethyl]-2-isopropyl-pyrazole-3-carboxamide]"
22,< 100 nM,"Cc1[nH]nc(C2CC2)c1-c1ccc(NC(=O)[C@@H](NC(=O)c2ccnn2C(C)C)C(C2CC2)C2CC2)cc1 [Example 383, N-[(1S)-2,2-dicyclopropyl-1-[[4-(3-cyclopropyl-5-methyl-1H-pyrazol-4-yl)phenyl]carbamoyl]ethyl]-2-isopropyl-pyrazole-3-carboxamide]"
23,< 100 nM,"Cc1[nH]nc(C(C)C)c1-c1ccc(NC(=O)[C@@H](NC(=O)c2ccnn2C(C)C)C(C2CC2)C2CC2)cc1 [Example 386, N-[(1S)-1-(dicyclopropylmethyl)-2-[4-(3-isopropyl-5-methyl-1H-pyrazol-4-yl)anilino]-2-oxo-ethyl]-2-isopropyl-pyrazole-3-carboxamide]"
24,< 100 nM,"CC(C)c1n[nH]c(C(C)C)c1-c1ccc(NC(=O)[C@@H](NC(=O)c2ccnn2C(C)C)C(C2CC2)C2CC2)cc1 [Example 387, N-[(1S)-1-(dicyclopropylmethyl)-2-[4-(3,5-diisopropyl-1H-pyrazol-4-yl)anilino]-2-oxo-ethyl]-2-isopropyl-pyrazole-3-carboxamide]"
25,100 to 1000 nM,"Cc1n[nH]c(C)c1-c1ccc(NC(=O)[C@@H](NC(=O)c2ccnn2CC(C)O)C(C2CC2)C2CC2)cc1 (stereo partly drawn) [Example 388, N-[(1S)-1-(dicyclopropylmethyl)-2-[4-(3,5-dimethyl-1H-pyrazol-4-yl)anilino]-2-oxo-ethyl]-2-(2-hydroxypropyl)pyrazole-3-carboxamide]"
26,< 100 nM,"Cc1[nH]nc(C2CC2)c1-c1ccc(NC(=O)[C@@H](NC(=O)c2ccnn2[C@@H](C)CO)C(C2CC2)C2CC2)cc1 [Example 389, N-[(1S)-2,2-dicyclopropyl-1-[[4-(3-cyclopropyl-5-methyl-1H-pyrazol-4-yl)phenyl]carbamoyl]ethyl]-2-[(1S)-2-hydroxy-1-methyl-ethyl]pyrazole-3-carboxamide]"
27,< 100 nM,"Cc1[nH]nc(C2CC2)c1-c1ccc(NC(=O)[C@@H](NC(=O)c2ccnn2[C@H](C)CO)C(C2CC2)C2CC2)cc1 [Example 390, N-[(1S)-2,2-dicyclopropyl-1-[[4-(3-cyclopropyl-5-methyl-1H-pyrazol-4-yl)phenyl]carbamoyl]ethyl]-2-[(1R)-2-hydroxy-1-methyl-ethyl]pyrazole-3-carboxamide]"
28,< 100 nM,"CCCn1nccc1C(=O)N[C@H](C(=O)Nc1ccc(-c2c(C3CC3)n[nH]c2C)cc1)C(C1CC1)C1CC1 [Example 391, N-[(1S)-2,2-dicyclopropyl-1-[[4-(3-cyclopropyl-5-methyl-1H-pyrazol-4-yl)phenyl]carbamoyl]ethyl]-2-propyl-pyrazole-3-carboxamide]"
